Laboratory results: publication PMC11062894, “Protein-based bandpass filters for controlling cellular signaling with chemical inputs” (Nature Chemical Biology, 2023)

System: GEMS receptors with CBPvene (Bcl2–LD3 and Bcl2high variants), STAT3-driven SEAP in HEK293T cells
Test: GEMS SEAP reporter assay, CBPvene (Bcl2high, LD3-v and Bcl2-v variants) with venetoclax
Type: cell-based
[1] = Supp Fig 10b, Bcl2-v4, venetoclax 316 nM
[2] = Supp Fig 10b, Bcl2-v4, venetoclax 1000 nM
[3] = Supp Fig 10b, Bcl2-v4, venetoclax 3160 nM
[4] = Supp Fig 10b, Bcl2-v4, venetoclax 10000 nM
[5] = Supp Fig 10b, Bcl2-v5, venetoclax 1 nM
[6] = Supp Fig 10b, Bcl2-v5, venetoclax 3.16 nM
[7] = Supp Fig 10b, Bcl2-v5, venetoclax 10 nM
[8] = Supp Fig 10b, Bcl2-v5, venetoclax 31.6 nM
[9] = Supp Fig 10b, Bcl2-v5, venetoclax 100 nM
[10] = Supp Fig 10b, Bcl2-v5, venetoclax 316 nM
[11] = Supp Fig 10b, Bcl2-v5, venetoclax 1000 nM
[12] = Supp Fig 10b, Bcl2-v5, venetoclax 3160 nM
[13] = Supp Fig 10b, Bcl2-v5, venetoclax 10000 nM
[14] = Supp Fig 10b, Bcl2-v6, venetoclax 1 nM
[15] = Supp Fig 10b, Bcl2-v6, venetoclax 3.16 nM
[16] = Supp Fig 10b, Bcl2-v6, venetoclax 10 nM
[17] = Supp Fig 10b, Bcl2-v6, venetoclax 31.6 nM
[18] = Supp Fig 10b, Bcl2-v6, venetoclax 100 nM
[19] = Supp Fig 10b, Bcl2-v6, venetoclax 316 nM
[20] = Supp Fig 10b, Bcl2-v6, venetoclax 1000 nM
[21] = Supp Fig 10b, Bcl2-v6, venetoclax 3160 nM
[22] = Supp Fig 10b, Bcl2-v6, venetoclax 10000 nM
[23] = Supp Fig 10b, Bcl2, venetoclax 1 nM
[24] = Supp Fig 10b, Bcl2, venetoclax 3.16 nM
[25] = Supp Fig 10b, Bcl2, venetoclax 10 nM
[26] = Supp Fig 10b, Bcl2, venetoclax 31.6 nM
[27] = Supp Fig 10b, Bcl2, venetoclax 100 nM
[28] = Supp Fig 10b, Bcl2, venetoclax 316 nM
[29] = Supp Fig 10b, Bcl2, venetoclax 1000 nM
[30] = Supp Fig 10b, Bcl2, venetoclax 3160 nM
[31] = Supp Fig 10b, Bcl2, venetoclax 10000 nM
[32] = Supp Fig 10c, Bcl2-v1, venetoclax 1 nM
[33] = Supp Fig 10c, Bcl2-v1, venetoclax 3.16 nM
[34] = Supp Fig 10c, Bcl2-v2, venetoclax 1 nM
[35] = Supp Fig 10c, Bcl2-v2, venetoclax 3.16 nM
[36] = Supp Fig 10c, Bcl2-v3, venetoclax 1 nM
[37] = Supp Fig 10c, Bcl2-v3, venetoclax 3.16 nM
[38] = Supp Fig 10c, Bcl2-v5, venetoclax 1 nM
[39] = Supp Fig 10c, Bcl2-v5, venetoclax 3.16 nM
[40] = Supp Fig 10c, Bcl2-v6, venetoclax 1 nM
[41] = Supp Fig 10c, Bcl2, venetoclax 1 nM
[42] = Supp Fig 10c, Bcl2, venetoclax 3.16 nM
[43] = SuppFigure 8a, LD3, venetoclax 1 nM
[44] = SuppFigure 8a, LD3, venetoclax 3.16 nM
[45] = SuppFigure 8a, LD3, venetoclax 100 nM
[46] = SuppFigure 8a, LD3, venetoclax 316 nM
[47] = SuppFigure 8a, LD3, venetoclax 1000 nM
[48] = SuppFigure 8a, LD3, venetoclax 3160 nM
[49] = SuppFigure 8a, LD3, venetoclax 10000 nM
[50] = SuppFigure 8a, LD3v1, venetoclax 1 nM
[51] = SuppFigure 8a, LD3v1, venetoclax 3.16 nM
[52] = SuppFigure 8a, LD3v1, venetoclax 100 nM
[53] = SuppFigure 8a, LD3v1, venetoclax 316 nM
[54] = SuppFigure 8a, LD3v1, venetoclax 1000 nM
[55] = SuppFigure 8a, LD3v1, venetoclax 3160 nM
[56] = SuppFigure 8a, LD3v1, venetoclax 10000 nM
[57] = SuppFigure 8a, LD3v2, venetoclax 1 nM
[58] = SuppFigure 8a, LD3v2, venetoclax 3.16 nM
[59] = SuppFigure 8a, LD3v2, venetoclax 100 nM
[60] = SuppFigure 8a, LD3v2, venetoclax 316 nM
[61] = SuppFigure 8a, LD3v2, venetoclax 1000 nM
[62] = SuppFigure 8a, LD3v2, venetoclax 3160 nM
[63] = SuppFigure 8a, LD3v2, venetoclax 10000 nM
[64] = SuppFigure 8a, LD3v3, venetoclax 1 nM
[65] = SuppFigure 8a, LD3v3, venetoclax 3.16 nM
[66] = SuppFigure 8a, LD3v3, venetoclax 100 nM
[67] = SuppFigure 8a, LD3v3, venetoclax 316 nM
[68] = SuppFigure 8a, LD3v3, venetoclax 1000 nM
[69] = SuppFigure 8a, LD3v3, venetoclax 3160 nM
[70] = SuppFigure 8a, LD3v3, venetoclax 10000 nM
[71] = SuppFigure 8b, LD3, venetoclax 1 nM
[72] = SuppFigure 8b, LD3, venetoclax 3.16 nM

## CC1(C)CCC(CN2CCN(c3ccc(C(=O)NS(=O)(=O)c4ccc(NCC5CCOCC5)c([N+](=O)[O-])c4)c(Oc4cnc5[nH]ccc5c4)c3)CC2)=C(c2ccc(Cl)cc2)C1 [Venetoclax]
Supp Fig 10b, Bcl2-v4, venetoclax 100 nM
  SEAP normalized (max=100): 78.5961
[1]
  SEAP: 14.4979
  SEAP normalized (max=100): 43.8128
[2]
  SEAP: 9.936
  SEAP normalized (max=100): 30.0279
[3]
  SEAP: 8.423
  SEAP normalized (max=100): 25.4557
[4]
  SEAP: 7.624
  SEAP normalized (max=100): 23.0384
[5]
  SEAP: 45.7217
  SEAP normalized (max=100): 92.4038
[6]
  SEAP: 49.4803
  SEAP normalized (max=100): 100
[7]
  SEAP: 40.0805
  SEAP normalized (max=100): 81.0029
[8]
  SEAP: 46.2116
  SEAP normalized (max=100): 93.3938
[9]
  SEAP: 42.8958
  SEAP normalized (max=100): 86.6926
[10]
  SEAP: 30.6164
  SEAP normalized (max=100): 61.8759
[11]
  SEAP: 14.0666
  SEAP normalized (max=100): 28.4288
[12]
  SEAP: 10.2265
  SEAP normalized (max=100): 20.6679
[13]
  SEAP: 6.4792
  SEAP normalized (max=100): 13.0945
[14]
  SEAP: 50.15
  SEAP normalized (max=100): 13.184
[15]
  SEAP: 55.0335
  SEAP normalized (max=100): 14.4678
[16]
  SEAP: 53.9332
  SEAP normalized (max=100): 14.1785
[17]
  SEAP: 141.748
  SEAP normalized (max=100): 37.2641
[18]
  SEAP: 380.387
  SEAP normalized (max=100): 100
[19]
  SEAP: 330.205
  SEAP normalized (max=100): 86.8077
[20]
  SEAP: 170.706
  SEAP normalized (max=100): 44.877
[21]
  SEAP: 26.4901
  SEAP normalized (max=100): 6.964
[22]
  SEAP: 10.3289
  SEAP normalized (max=100): 2.715
[23]
  SEAP: 34.2584
  SEAP normalized (max=100): 5.865
[24]
  SEAP: 39.5038
  SEAP normalized (max=100): 6.763
[25]
  SEAP: 88.7679
  SEAP normalized (max=100): 15.1973
[26]
  SEAP: 235.479
  SEAP normalized (max=100): 40.3146
[27]
  SEAP: 448.604
  SEAP normalized (max=100): 76.8023
[28]
  SEAP: 584.102
  SEAP normalized (max=100): 100
[29]
  SEAP: 347.384
  SEAP normalized (max=100): 59.4733
[30]
  SEAP: 20.111
  SEAP normalized (max=100): 3.443
[31]
  SEAP: 12.4887
  SEAP normalized (max=100): 2.138
[32]
  SEAP: 26.1238
  SEAP normalized (max=100): 100
[33]
  SEAP: 24.5196
  SEAP normalized (max=100): 93.8591
[34]
  SEAP: 41.9684
  SEAP normalized (max=100): 37.8578
[35]
  SEAP: 39.8265
  SEAP normalized (max=100): 35.9258
[36]
  SEAP: 35.0656
  SEAP normalized (max=100): 94.2276
[37]
  SEAP: 34.981
  SEAP normalized (max=100): 94.0003
[38]
  SEAP: 25.6864
  SEAP normalized (max=100): 99.6735
[39]
  SEAP: 25.7705
  SEAP normalized (max=100): 100
[40]
  SEAP: 44.5051
  SEAP normalized (max=100): 24.1282
[41]
  SEAP: 9.631
  SEAP normalized (max=100): 6.451
[42]
  SEAP: 8.848
  SEAP normalized (max=100): 5.926
[43]
  Normalized data (SEAP): 18.1283
  Raw data (SEAP): 14.9284
[44]
  Normalized data (SEAP): 15.4665
  Raw data (SEAP): 12.7365
[45]
  Normalized data (SEAP): 62.0224
  Raw data (SEAP): 51.0746
[46]
  Normalized data (SEAP): 79.6476
  Raw data (SEAP): 65.5888
[47]
  Normalized data (SEAP): 100
  Raw data (SEAP): 82.3488
[48]
  Normalized data (SEAP): 64.1557
  Raw data (SEAP): 52.8314
[49]
  Normalized data (SEAP): 26.7094
  Raw data (SEAP): 21.9948
[50]
  Normalized data (SEAP): 73.3263
  Raw data (SEAP): 13.9463
[51]
  Normalized data (SEAP): 77.9742
  Raw data (SEAP): 14.8303
[52]
  Normalized data (SEAP): 93.9945
  Raw data (SEAP): 17.8773
[53]
  Normalized data (SEAP): 100
  Raw data (SEAP): 19.0195
[54]
  Normalized data (SEAP): 92.9583
  Raw data (SEAP): 17.6802
[55]
  Normalized data (SEAP): 77.7035
  Raw data (SEAP): 14.7788
[56]
  Normalized data (SEAP): 63.3664
  Raw data (SEAP): 12.052
[57]
  Normalized data (SEAP): 16.5083
  Raw data (SEAP): 13.4033
[58]
  Normalized data (SEAP): 16.1655
  Raw data (SEAP): 13.125
[59]
  Normalized data (SEAP): 55.5208
  Raw data (SEAP): 45.078
[60]
  Normalized data (SEAP): 68.4407
  Raw data (SEAP): 55.5679
[61]
  Normalized data (SEAP): 100
  Raw data (SEAP): 81.1913
[62]
  Normalized data (SEAP): 59.661
  Raw data (SEAP): 48.4395
[63]
  Normalized data (SEAP): 19.9233
  Raw data (SEAP): 16.176
[64]
  Normalized data (SEAP): 79.8276
  Raw data (SEAP): 14.5214
[65]
  Normalized data (SEAP): 77.8421
  Raw data (SEAP): 14.1602
[66]
  Normalized data (SEAP): 89.5467
  Raw data (SEAP): 16.2894
[67]
  Normalized data (SEAP): 90.6522
  Raw data (SEAP): 16.4905
[68]
  Normalized data (SEAP): 100
  Raw data (SEAP): 18.191
[69]
  Normalized data (SEAP): 92.956
  Raw data (SEAP): 16.9096
[70]
  Normalized data (SEAP): 54.34
  Raw data (SEAP): 9.885
[71]
  Normalized data (SEAP): 3.308
  Raw data (SEAP): 13.9036
[72]
  Normalized data (SEAP): 3.395
  Raw data (SEAP): 14.2688
